The text below walks through data of ChEMBL document CHEMBL3045618, “Effect of seven new orchard pesticides on Galendromus occidentalis in laboratory studies” (2009).

Holding throughout (type): functional
In assay [1] the test system is Galendromus occidentalis. Put plainly: Toxicity against Metaseiulus occidentalis adults in bean leaf disk infested with two-spotted spider mites assessed as repellency at 0.3024 g AI/L treated using worst-case laboratory exposure procedure measured after 48 hr (reference value: 13.6%).
Assay [2] relates to Galendromus occidentalis. Put plainly: Toxicity against Metaseiulus occidentalis adults in bean leaf disk infested with two-spotted spider mites assessed as repellency at 0.3024 g AI/L treated using worst-case laboratory exposure procedure measured after 72 hr (reference value: 16.1%).
In assay [3] the test system is Galendromus occidentalis. Put plainly: Toxicity against Metaseiulus occidentalis adults in bean leaf disk infested with two-spotted spider mites assessed as repellency at 0.3024 g AI/L treated using worst-case laboratory exposure procedure measured after 24 hr (reference value: 3.6%).
For assay [4], the system named is Galendromus occidentalis. Put plainly: Toxicity against Metaseiulus occidentalis adults in bean leaf disk infested with two-spotted spider mites assessed as average number of eggs laid (fecundity) at 0.3024 g AI/L treated using worst-case laboratory exposure procedure measured after 72 hr (reference value: 2.23/day).
Assay [5] concerns Galendromus occidentalis. Description: Toxicity against Metaseiulus occidentalis adults in bean leaf disk infested with two-spotted spider mites assessed as corrected mortality at 0.3024 g AI/L treated using worst-case laboratory exposure procedure measured after 72 hr.
Assay [6] deals with Galendromus occidentalis. Description: Toxicity against Metaseiulus occidentalis adults in bean leaf disk infested with two-spotted spider mites assessed as average number of eggs laid (fecundity) at 0.3024 g AI/L treated using worst-case laboratory exposure procedure measured after 48 hr (reference value: 2.30/day).
Assay [7] relates to Galendromus occidentalis. Description: Toxicity against Metaseiulus occidentalis adults in bean leaf disk infested with two-spotted spider mites assessed as average number of eggs laid (fecundity) at 0.3024 g AI/L treated using worst-case laboratory exposure procedure measured after 24 hr (reference value: 2.11/day).
The subject of assay [8] is Galendromus occidentalis. Description: Ovicidal activity against Metaseiulus occidentalis eggs in bean leaf disk infested with two-spotted spider mites assessed as corrected cumulative mortality at 240 g/L SC formulation treated using worst-case laboratory exposure procedure measured after 144 hr (reference value: 0.7%).
Assay [9] relates to Galendromus occidentalis. Description: Toxicity against Metaseiulus occidentalis adults in bean leaf disk infested with two-spotted spider mites assessed as repellency at 0.1167 g AI/L treated using worst-case laboratory exposure procedure measured after 72 hr (reference value: 16.1%).
Assay [10] has as its system Galendromus occidentalis. Put plainly: Toxicity against Metaseiulus occidentalis adults in bean leaf disk infested with two-spotted spider mites assessed as repellency at 0.1167 g AI/L treated using worst-case laboratory exposure procedure measured after 48 hr (reference value: 13.6%).
For assay [11], the system named is Galendromus occidentalis. Put plainly: Toxicity against Metaseiulus occidentalis adults in bean leaf disk infested with two-spotted spider mites assessed as repellency at 0.1167 g AI/L treated using worst-case laboratory exposure procedure measured after 24 hr (reference value: 3.6%).
For assay [12], the system named is Galendromus occidentalis. Description: Toxicity against Metaseiulus occidentalis adults in bean leaf disk infested with two-spotted spider mites assessed as average number of eggs laid (fecundity)at 0.1167 g AI/L treated using worst-case laboratory exposure procedure measured after 72 hr (reference value: 2.23/day).
In assay [13] the test system is Galendromus occidentalis. Put plainly: Toxicity against Metaseiulus occidentalis adults in bean leaf disk infested with two-spotted spider mites assessed as corrected mortality at 0.1167 g AI/L treated using worst-case laboratory exposure procedure measured after 72 hr.
Assay [14] concerns Galendromus occidentalis. Description: Toxicity against Metaseiulus occidentalis adults in bean leaf disk infested with two-spotted spider mites assessed as corrected mortality at 2x0.1167 g AI/L treated using worst-case laboratory exposure procedure measured after 72 hr.
For assay [15], the system named is Galendromus occidentalis. Put plainly: Toxicity against Metaseiulus occidentalis adults in bean leaf disk infested with two-spotted spider mites assessed as average number of eggs laid (fecundity) at 0.1167 g AI/L treated using worst-case laboratory exposure procedure measured after 48 hr (reference value: 2.30/day).
The test system of assay [16] is Galendromus occidentalis. Description: Toxicity against Metaseiulus occidentalis adults in bean leaf disk infested with two-spotted spider mites assessed as average number of eggs laid (fecundity) at 0.1167 g AI/L treated using worst-case laboratory exposure procedure measured after 24 hr (reference value: 2.11/day).
In assay [17] the test system is Galendromus occidentalis. Put plainly: Toxicity against Metaseiulus occidentalis adults in bean leaf disk infested with two-spotted spider mites assessed as corrected mortality at 0.1167/128 g AI/L treated using worst-case laboratory exposure procedure measured after 72 hr.
Assay [18] concerns Galendromus occidentalis. Put plainly: Toxicity against Metaseiulus occidentalis adults in bean leaf disk infested with two-spotted spider mites assessed as corrected mortality at 0.1167/46 g AI/L treated using worst-case laboratory exposure procedure measured after 72 hr.
The subject of assay [19] is Galendromus occidentalis. Put plainly: Toxicity against Metaseiulus occidentalis adults in bean leaf disk infested with two-spotted spider mites assessed as corrected mortality at 0.1167/8 g AI/L treated using worst-case laboratory exposure procedure measured after 72 hr.
Assay [20] relates to Galendromus occidentalis. Put plainly: Toxicity against Metaseiulus occidentalis adults in bean leaf disk infested with two-spotted spider mites assessed as corrected mortality at 4x0.1167 g AI/L treated using worst-case laboratory exposure procedure measured after 72 hr.
Assay [21] deals with Galendromus occidentalis. Put plainly: Toxicity against Metaseiulus occidentalis adults in bean leaf disk infested with two-spotted spider mites assessed as mortality treated using worst-case laboratory exposure procedure measured after 72 hr.
In assay [22] the test system is Galendromus occidentalis. Put plainly: Ovicidal activity against Metaseiulus occidentalis eggs in bean leaf disk infested with two-spotted spider mites assessed as corrected cumulative mortality at 700 g/kg WP formulation treated using worst-case laboratory exposure procedure measured after 144 hr (reference value: 0.7%).

Molecules are shown by their SMILES.

Consider `CCC(C)(C)C(=O)OC1=C(c2ccc(Cl)cc2Cl)C(=O)OC12CCCCC2` [SPIRODICLOFEN], for which the Repellency in the assay on Galendromus occidentalis [1] was 13.5%; with Galendromus occidentalis [2], 15.4%; in the assay on Galendromus occidentalis [3] it was 6.4%. Besides, the Activity in the assay with Galendromus occidentalis [4] was determined as 1.43 day⁻¹; with Galendromus occidentalis [6], 1.83 day⁻¹; with Galendromus occidentalis [7], 1.93 day⁻¹. Further, the mortality in the assay on Galendromus occidentalis [5] was 2.1%. Also, the mortality at 240000 µg/mL (stock) in the assay on Galendromus occidentalis [8] worked out at 2.3%.
On to `C/C(=N\C#N)N(C)Cc1ccc(Cl)nc1` [ACETAMIPRID], for which the figures for the Repellency in the assay with Galendromus occidentalis [9], in the assay on Galendromus occidentalis [10] and in the assay with Galendromus occidentalis [11] were 50%, 41% and 16%, respectively. In addition, the Activity with Galendromus occidentalis [12] came to 0 day⁻¹; with Galendromus occidentalis [15], 0.13 day⁻¹; in the assay with Galendromus occidentalis [16] it was 1.3 day⁻¹. Moreover, the mortality with Galendromus occidentalis [13] turned out to be 63.7%; in the assay on Galendromus occidentalis [14], 64.2%; in the assay with Galendromus occidentalis [17], 2.4%; in the assay with Galendromus occidentalis [18], 42.4%; in the assay on Galendromus occidentalis [19], 56.9%; in the assay with Galendromus occidentalis [20] it was 83.1%. In the assay with Galendromus occidentalis [22], the mortality is given as 2%. Also, the LC50 with Galendromus occidentalis [21] stood at 0.021 gAi/L.

The term mortality denotes the share of the test organisms that died.
